Here are results for two molecules from patent US20210255184A1, “Biosensor Device and Methods” (The New Zealand Institute for Plant and Food Research …, priority 2018, published 2021).

The assay concerns the target T1, Orco (Drosophila melanogaster, UniProt Q9VNB5).
T1 construct: his-tag; made in house; host or cells: baculovirus-infected Sf9 cells
T1 sequence (Q9VNB5 1-486): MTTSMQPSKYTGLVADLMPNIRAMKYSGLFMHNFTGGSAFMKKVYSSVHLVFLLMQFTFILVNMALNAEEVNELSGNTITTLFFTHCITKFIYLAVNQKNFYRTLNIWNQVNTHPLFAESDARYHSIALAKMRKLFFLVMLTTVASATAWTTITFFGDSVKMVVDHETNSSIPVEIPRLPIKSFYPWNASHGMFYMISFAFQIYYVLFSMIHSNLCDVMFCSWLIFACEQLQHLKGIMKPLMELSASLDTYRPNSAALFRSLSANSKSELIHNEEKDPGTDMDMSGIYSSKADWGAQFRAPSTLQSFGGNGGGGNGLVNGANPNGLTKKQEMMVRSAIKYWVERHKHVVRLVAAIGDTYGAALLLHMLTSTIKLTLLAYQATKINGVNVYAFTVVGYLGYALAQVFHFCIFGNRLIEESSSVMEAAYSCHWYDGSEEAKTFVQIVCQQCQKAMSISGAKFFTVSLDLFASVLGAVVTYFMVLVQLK
Briefly: GFET sensor, Orco liposomes (control). The note with it: Orco only liposomes. It is filed as biochemical. The method, then:
The OR liposomes were functionalised onto the graphene surface via a non-covalent route using PBASE as the molecular linker as shown in FIG. 13. The OR liposomes were diluted at 1:10 ratio with 1×PBS (pH7.4). The cleaned GFETs were immersed in 1 mM PBASE solution in methanol for 1 hour. The devices were washed three times in methanol and subsequently washed three times in 1×PBS to remove the excess PBASE and residual methanol in the channel respectively. The OR liposomes were diluted 1:10 with 1×PBS (pH 7.4) and 100 μL of the OR dilution was placed in the graphene channel and incubated at room temperature for one hour in a closed petri dish. After OR liposome functionalization, the devices were washed in 1×PBS for 10 s before measurements.
The OR liposome immobilised GFET device with a PDMS well mounted on it was placed onto the probe station and the source and drain connections were made by micromanipulators. 100 μl of PBS containing 1% dimethyl sulfoxide (DMSO) was added to the well and the Ag/AgCl standard electrode was placed into the buffer. The stock solution of ligands at 100 mM concentrations were prepared by dissolving them in DMSO as they are not stable in aqueous buffer. The stock solution was stored at 4° C. The ligand solution for sensing was prepared by diluting the stock solution in 1×PBS buffer containing 1% DMSO to set concentrations from 10 fM to 100 pM. […]

For `CCCCCC(=O)OC` [methyl hexanoate], the “sensor response to target ligand” value is reported as “lack of response”.

With `COC(=O)c1ccccc1O` [methyl salicylate], the “sensor response to target ligand” value is recorded as “lack of response”.
